Assays:
[1] = target: T1, Interferon-induced, double-stranded RNA-activated protein kinase (Homo sapiens, UniProt P19525); assay: Inhibition of PKR (unknown origin)
[2] = target: T1, Interferon-induced, double-stranded RNA-activated protein kinase; assay: Inhibition of GST tagged human PKR incubated for 10 mins in presence of ATP by Kinase Glo luminescence assay

T1 sequence (P19525 whole entry): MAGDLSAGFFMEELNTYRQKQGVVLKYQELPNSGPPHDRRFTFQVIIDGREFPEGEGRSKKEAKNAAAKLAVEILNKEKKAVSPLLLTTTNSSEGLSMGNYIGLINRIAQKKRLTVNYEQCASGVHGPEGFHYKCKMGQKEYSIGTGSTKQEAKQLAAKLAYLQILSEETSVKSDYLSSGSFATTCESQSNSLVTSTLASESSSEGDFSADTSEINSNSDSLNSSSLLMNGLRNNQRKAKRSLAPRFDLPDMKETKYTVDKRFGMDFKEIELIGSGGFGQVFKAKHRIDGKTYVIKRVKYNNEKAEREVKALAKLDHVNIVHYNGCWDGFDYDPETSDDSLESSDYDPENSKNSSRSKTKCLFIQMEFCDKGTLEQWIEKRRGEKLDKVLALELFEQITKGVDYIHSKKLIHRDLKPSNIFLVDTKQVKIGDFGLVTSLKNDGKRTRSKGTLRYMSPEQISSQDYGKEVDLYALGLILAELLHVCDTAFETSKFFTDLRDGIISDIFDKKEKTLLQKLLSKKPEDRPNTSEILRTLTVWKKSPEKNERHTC

Compound | IC50 [1] [nM] | also measured
CCc1ccc(OC(F)(F)F)cc1CC(=O)N1CCc2cc(-c3cn(CC)c4ncnc(N)c34)ccc21 | – | EC50 [1]: 37 nM
O=C(Nc1cc(-c2ccccc2)[nH]n1)c1ccc(N2CCNC2=O)cc1 | 3880 | –
CCc1ccc(OC(F)(F)F)cc1CC(=O)N1CCc2cc(-c3nn(CC)c4ncnc(N)c34)ccc21 | – | EC50 [1]: 95 nM
COCCO[C@H]1CC[C@H](n2nc(-c3ccc(Nc4nc5cc(Cl)cc(F)c5o4)cc3)c3c(N)ncnc32)CC1 | 364 | –
Nc1ncc(-c2nnn(CCCO)n2)cc1-c1cc2cc(NC(=O)Nc3ccc(Cl)c(C(F)(F)F)c3)ccc2o1 | – | IC50 [2]: 475 nM

Now from value to molecule, other results behind:

IC50 [1] [nM] | Compound | also measured
306 | CC(=O)Cn1cc(-c2cnc(N)c3c(-c4ccc(NC(=O)Nc5cccc(C)c5)cc4)csc23)cn1 | –
116 | CCn1cc(-c2ccc3c(c2)CCN3C(=O)Cc2cccc(OC(F)(F)F)c2)c2c(N)ncnc21 | –

Source: ChEMBL document CHEMBL5223142, “Identification of potent and selective inhibitors of PKR via virtual screening and traditional design” (Bioorg Med Chem Lett, 2023)
